This passage reports IC50 and Ki results from ChEMBL document CHEMBL1156520, “Inhibition of human dimethylarginine dimethylaminohydrolase-1 by S-nitroso-L-homocysteine and hydrogen peroxide. Analysis, quantification, and implications for hyperhomocysteinemia” (J Biol Chem, 2007).

Experiment [1] addresses N(G),N(G)-dimethylarginine dimethylaminohydrolase 1 (Homo sapiens, UniProt O94760). As to the kind of experiment: Inhibition of human recombinant DDAH1.
A short description of experiment [2]: Inhibition of recombinant N-glutathione transferase/human DDAH1 fusion protein.

N(G),N(G)-dimethylarginine dimethylaminohydrolase 1, sequence (O94760 whole entry, the tested form may be a part): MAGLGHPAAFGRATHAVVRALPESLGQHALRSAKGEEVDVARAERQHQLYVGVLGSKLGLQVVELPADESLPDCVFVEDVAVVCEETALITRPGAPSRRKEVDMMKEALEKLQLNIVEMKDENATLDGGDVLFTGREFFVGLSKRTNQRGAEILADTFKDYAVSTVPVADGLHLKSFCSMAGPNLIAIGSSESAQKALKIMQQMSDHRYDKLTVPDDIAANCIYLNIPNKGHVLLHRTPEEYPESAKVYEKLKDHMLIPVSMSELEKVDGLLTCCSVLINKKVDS

Regarding `N[C@@H](CCS)C(=O)O` [L-HOMOCYSTEINE], the concentration for half-maximal inhibition (IC50) in experiment [1] came out at 640 µM.

For the compound `NCCCC[C@H](N)C(=O)O` [LYSINE], the Ki in experiment [2] came out at 2800 µM.
